Laboratory results reported in ChEMBL document CHEMBL1123222, “Inactivation of gamma-aminobutyric acid aminotransferase by (S,E)-4-amino-5-fluoropent-2-enoic acid and effect on the enzyme of (E)-3-(1-aminocyclopropyl)-2-propenoic acid” (J Med Chem, 1986).
pKi: −log10 of the molar value.

Columns and labels:
[1] = Michaelis-Menten constant was determined; assay type: ADME
[2] = Maximal rate constant was determined; assay type: ADME
[3] = molecular target: T1, 4-aminobutyrate aminotransferase, mitochondrial (Sus scrofa, UniProt P80147); assay: Compound was tested for inhibitory constant of Gamma-amino-N-butyrate transaminase in pig brain at pH of 6.5
[4] = molecular target: 4-aminobutyrate aminotransferase, mitochondrial (Sus scrofa) (UniProt P80147); assay: Compound was tested for inactivation of Gamma-amino-N-butyrate transaminase in pig brain at pH of 6.5
[5] = molecular target: T1, 4-aminobutyrate aminotransferase, mitochondrial; assay: Compound was tested for inhibitory constant of Gamma-amino-N-butyrate transaminase in pig brain at pH of 8.5 and 25 degree C
[6] = molecular target: 4-aminobutyrate aminotransferase, mitochondrial (Sus scrofa) (UniProt P80147); assay: Compound was tested for inactivation of Gamma-amino-N-butyrate transaminase in pig brain at pH of 8.5 and 25 degree C

Sequence of 4-aminobutyrate aminotransferase, mitochondrial (Sus scrofa) (P80147 whole entry): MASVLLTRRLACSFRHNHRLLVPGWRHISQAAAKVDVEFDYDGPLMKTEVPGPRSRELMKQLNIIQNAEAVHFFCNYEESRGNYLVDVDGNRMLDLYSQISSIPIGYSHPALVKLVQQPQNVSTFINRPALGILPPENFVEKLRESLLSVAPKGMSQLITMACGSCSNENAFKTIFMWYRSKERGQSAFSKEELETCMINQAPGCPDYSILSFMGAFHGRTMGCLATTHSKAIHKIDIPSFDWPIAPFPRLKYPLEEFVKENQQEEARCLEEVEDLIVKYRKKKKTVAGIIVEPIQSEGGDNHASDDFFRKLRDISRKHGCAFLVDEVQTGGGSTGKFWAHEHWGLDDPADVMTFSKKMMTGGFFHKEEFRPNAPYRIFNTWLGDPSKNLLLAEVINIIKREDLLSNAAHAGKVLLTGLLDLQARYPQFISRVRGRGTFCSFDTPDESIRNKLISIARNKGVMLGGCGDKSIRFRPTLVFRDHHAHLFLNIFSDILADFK
T1 sequence (P80147 whole entry): as above

| Km [1] [µM] | Vmax [2] [µM/min/mg] | SMILES | pKi [3] | K inact [4] [min⁻¹] | pKi [5] | K inact [6] [min⁻¹] |
| --- | --- | --- | --- | --- | --- | --- |
| 1100 | 0.14 | NCCCC(=O)O [GAMMA-AMINOBUTYRIC ACID] |  |  |  |  |
| 1300 | 0.35 | NC/C=C/C(=O)O [t-4-AMINOCROTONIC ACID (TACA)] |  |  |  |  |
|  |  | NC(/C=C/C(=O)O)CF (stereo not given) | 2.70 | 0.061 |  |  |
|  |  | NC(CF)CCC(=O)O (stereo not given) | 0.98 | 0.31 | 3.40 | 0.5 |
